Target: T1, Aurora-2 (Homo sapiens, UniProt O14965)
T1 sequence (O14965 1-403): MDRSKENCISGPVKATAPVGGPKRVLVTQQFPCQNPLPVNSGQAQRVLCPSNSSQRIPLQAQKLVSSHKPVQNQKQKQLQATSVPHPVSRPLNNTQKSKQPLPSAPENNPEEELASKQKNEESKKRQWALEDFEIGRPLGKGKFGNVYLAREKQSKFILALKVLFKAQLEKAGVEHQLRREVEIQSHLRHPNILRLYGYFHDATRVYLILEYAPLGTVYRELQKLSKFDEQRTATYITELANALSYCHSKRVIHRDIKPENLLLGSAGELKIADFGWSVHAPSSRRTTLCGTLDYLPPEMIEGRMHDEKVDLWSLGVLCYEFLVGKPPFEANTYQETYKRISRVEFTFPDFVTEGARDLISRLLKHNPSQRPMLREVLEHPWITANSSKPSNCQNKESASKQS
Assay: Inhibition assay of Aurora-2 activity (SPA technology)
Format: biochemical
Conditions: screened according to the methods of the pharmacology section; read-out: IC50 values for Aurora-2 inhibition
Experimental: The inhibiting activity and the potency of selected compounds is determined through a method of assay based on the use of the SPA technology (Amersham Pharmacia Biotech).
The assay consists of the transfer of radioactivity labelled phosphate moiety by the kinase to a biotinylated substrate. The resulting 33P-labelled biotinylated product is allowed to bind to streptavidin-coated SPA beads (biotin capacity 130 pmol/mg), and light emitted was measured in a scintillation counter.
Inhibition Assay of Aurora-2 Activity
After 60 minutes at room temperature incubation, reaction was stopped and biotinylated peptide captured by adding 100 μl of bead suspension.
Stratification: 100 μl of CsCl2 5 M were added to each well and let stand 4 hour before radioactivity was counted in the Top-Count instrument.
Experimental data were analyzed by the computer program GraphPad Prizm using the four parameter logistic equation: y=bottom+(top−bottom)/(1+10^((logIC50−x)*slope)) where x is the logarithm of the inhibitor concentration, y is the response; y starts at bottom and goes to top with a sigmoid shape.

## CC(C)(NC(=O)c1cc2c(NC(=O)c3ccc(CN4CCCCC4)cc3)n[nH]c2s1)c1ccccc1 [Compound 39, 3-(4-Piperidin-1-ylmethyl-benzoylamino)-1H-thieno[2,3-c]pyrazole-5-carboxylic acid(1-methyl-1-phenyl-ethyl)-amide]
  IC50: < 20 nM

## CC(C)NCc1ccc(C(=O)Nc2n[nH]c3sc(C(=O)NC(C)(C)c4ccccc4)cc23)cc1 [Compound 40, 3-[4-(Isopropylamino-methyl)-benzoylamino]-1H-thieno[2,3-c]pyrazole-5-carboxylic acid (1-methyl-1-phenyl-ethyl)-amide]
  IC50: < 20 nM

## CC(C)(NC(=O)c1cc2c(NC(=O)c3ccc(CN4CCS(=O)(=O)CC4)cc3)n[nH]c2s1)c1ccccc1 [Compound 41, 3-[4-(1,1-Dioxo-1-thiomorpholin-4-ylmethyl)-benzoylamino]-1H-thieno[2,3-c]pyrazole-5-carboxylic acid(1-methyl-1-phenyl-ethyl)-amide]
  IC50: < 20 nM

## CC(C)(NC(=O)c1cc2c(NC(=O)c3ccc(CN4CCOCC4)cc3)n[nH]c2s1)c1cccc(F)c1 [Compound 42, 3-(4-Morpholin-4-ylmethyl-benzoylamino)-1H-thieno[2,3-c]pyrazole-5-carboxylic acid [1-(3-fluoro-phenyl)-1-methyl-ethyl]-amide]
  IC50: < 20 nM

## CC(C)(NC(=O)c1cc2c(NC(=O)c3ccc(CN4CCC(F)CC4)cc3)n[nH]c2s1)c1ccccc1 [Compound 46]
  IC50: < 20 nM

## CC(C)(NC(=O)c1cc2c(NC(=O)c3ccc(CN4CCNCC4)cc3)n[nH]c2s1)c1ccccc1 [Compound 47, 3-(4-piperazin-1-ylmethyl-benzoylamino)-1H-thieno[2,3-c]pyrazole-5-carboxylic acid (1-methyl-1-phenyl-ethyl)-amide]
  IC50: < 20 nM

## CC(C)(NC(=O)c1cc2c(NC(=O)c3ccc(Cn4ccnc4)cc3)n[nH]c2s1)c1ccccc1 [Compound 48, 3-(4-Imidazol-1-ylmethyl-benzoylamino)-1H-thieno[2,3-c]pyrazole-5-carboxylic acid (1-methyl-1-phenyl-ethyl)-amide]
  IC50: < 20 nM

## CC(C)(NC(=O)c1cc2c(NC(=O)c3ccc(CN4CCSC4)cc3)n[nH]c2s1)c1ccccc1 [Compound 49, 3-(4-Thiazolidin-3-ylmethyl-benzoylamino)-1H-thieno[2,3-c]pyrazole-5-carboxylic acid (1-methyl-1-phenyl-ethyl)-amide]
  IC50: < 20 nM

## CC(C)(NC(=O)c1cc2c(NC(=O)c3ccc(CN4CCCC4)cc3)n[nH]c2s1)c1cccc(F)c1 [Compound 50, 3-(4-Pyrrolidin-1-ylmethyl-benzoylamino)-1H-thieno[2,3-c]pyrazole-5-carboxylic acid [1-(3-fluoro-phenyl)-1-methyl-ethyl]-amide]
  IC50: < 20 nM

## CC(C)(NC(=O)c1cc2c(NC(=O)c3ccc(CN4CCCCC4)cc3)n[nH]c2s1)c1cccc(F)c1 [Compound 51, 3-(4-Piperidin-1-ylmethyl-benzoylamino)-1H-thieno[2,3-c]pyrazole-5-carboxylic acid [1-(3-fluoro-phenyl)-1-methyl-ethyl]-amide]
  IC50: < 20 nM

## CC(C)(NC(=O)c1cc2c(NC(=O)c3ccc(CN4CCC4)cc3)n[nH]c2s1)c1ccccc1 [Compound 53, 3-(4-Azetidin-1-ylmethyl-benzoylamino)-1H-thieno[2,3-c]pyrazole-5-carboxylic acid (1-methyl-1-phenyl-ethyl)-amide]
  IC50: < 20 nM

## CC(C)(NC(=O)c1cc2c(NC(=O)c3ccc(CN4CCN(C(C)(C)C)CC4)cc3)n[nH]c2s1)c1ccccc1 [Compound 57, 3-[4-(4-tert-Butyl-piperazin-1-ylmethyl)-benzoylamino]-1H-thieno[2,3-c]pyrazole-5-carboxylic acid (1-methyl-1-phenyl-ethyl)-amide]
  IC50: < 20 nM

## CC(C)(NC(=O)c1cc2c(NC(=O)c3ccc(CN4CCCC4)cc3)n[nH]c2s1)c1ccc(F)cc1 [Compound 58, 3-(4-Pyrrolidin-1-ylmethyl-benzoylamino)-1H-thieno[2,3-c]pyrazole-5-carboxylic acid [1-(4-fluoro-phenyl)-1-methyl-ethyl]-amide]
  IC50: < 20 nM

## CC(C)(NC(=O)c1cc2c(NC(=O)c3ccc(CN4CCCCC4)cc3)n[nH]c2s1)c1ccc(F)cc1 [Compound 59, 3-(4-Piperidin-1-ylmethyl-benzoylamino)-1H-thieno[2,3-c]pyrazole-5-carboxylic acid [1-(4-fluoro-phenyl)-1-methyl-ethyl]-amide]
  IC50: < 20 nM

## CC(C)(NC(=O)c1cc2c(NC(=O)c3ccc(CNC4CC4)cc3)n[nH]c2s1)c1ccccc1 [Compound 62, 3-(4-Cyclopropylaminomethyl-benzoylamino)-1H-thieno[2,3-c]pyrazole-5-carboxylic acid (1-methyl-1-phenyl-ethyl)-amide]
  IC50: < 20 nM

## CC(C)(NC(=O)c1cc2c(NC(=O)c3ccc(CNC4CCC4)cc3)n[nH]c2s1)c1ccccc1 [Compound 63, 3-(4-Cyclobutylaminomethyl-benzoylamino)-1H-thieno[2,3-c]pyrazole-5-carboxylic acid (1-methyl-1-phenyl-ethyl)-amide]
  IC50: < 20 nM

## CC(C)N(C)Cc1ccc(C(=O)Nc2n[nH]c3sc(C(=O)NC(C)(C)c4ccccc4)cc23)cc1 [Compound 64, 3-{4-[(Isopropyl-methyl-amino)-methyl]benzoylamino}-1H-thieno[2,3-c]pyrazole-5-carboxylic acid (1-methyl-1-phenyl-ethyl)-amide]
  IC50: < 20 nM

## CC(C)(NC(=O)c1cc2c(NC(=O)c3ccc(CNC4CCCC4)cc3)n[nH]c2s1)c1ccccc1 [Compound 65, 3-(4-Cyclopentylaminomethyl-benzoylamino)-1H-thieno[2,3-c]pyrazole-5-carboxylic acid (1-methyl-1-phenyl-ethyl)-amide]
  IC50: < 20 nM

## O=C(Nc1n[nH]c2sc(C(=O)NC3(c4ccccc4)CCCC3)cc12)c1cccs1 [Compound 122, 3-[(Thiophene-2-carbonyl)-amino]-1H-thieno[2,3-c]pyrazole-5-carboxylic acid (1-phenyl-cyclopentyl)-amide]
  IC50: < 20 nM

## CC(C)(NC(=O)c1cc2c(NC(=O)c3cccs3)n[nH]c2s1)c1ccccc1F [Compound 123, 3-[(Thiophene-2-carbonyl)-amino]-1H-thieno[2,3-c]pyrazole-5-carboxylic acid [1-(2-fluoro-phenyl)-1-methyl-ethyl]-amide]
  IC50: < 20 nM

## CC(C)(NC(=O)c1cc2c(NC(=O)c3cccs3)n[nH]c2s1)c1cccc(F)c1 [Compound 124, 3-[(Thiophene-2-carbonyl)-amino]-1H-thieno[2,3-c]pyrazole-5-carboxylic acid [1-(3-fluoro-phenyl)-1-methyl-ethyl]-amide]
  IC50: < 20 nM

## CN(C)CCOc1ccc(C(=O)Nc2n[nH]c3sc(C(=O)NC(C)(C)c4ccccc4F)cc23)cc1 [Compound 126, 3-[4-(2-Dimethylamino-ethoxy)-benzoylamino]-1H-thieno[2,3-c]pyrazole-5-carboxylic acid [1-(2-fluoro-phenyl)-1-methyl-ethyl]-amide]
  IC50: < 20 nM

## O=C(Nc1n[nH]c2sc(C(=O)NC3(c4ccccc4)CCCC3)cc12)c1ccc(N2CCOCC2)cc1 [Compound 131, 3-(4-Morpholin-4-yl-benzoylamino)-1H-thieno[2,3-c]pyrazole-5-carboxylic acid (1-phenyl-cyclopentyl)-amide]
  IC50: < 20 nM

From patent publication US8481584B2, “1H-thieno[2,3-c]pyrazole derivatives useful as kinase inhibitors” (Nerviano Medical Sciences S.R.L., priority 2004, dated 2013)
